The text below walks through data of US12030876B2, “Aryl hydrocarbon receptor (AHR) agonists and uses thereof” (Ikena Oncology, Inc., priority 2019, dated 2024).

Series [1] deals with DSS model of Inflammatory Bowel Disease (IBD). The format is in vivo, C57Bl/6 mice. To be noted: DSS model. The protocol: On study day −1, C57Bl/6 mice are weighed and randomized into treatment groups based on body weight. On study day 0, treatment groups are given 2.5% DSS in drinking water and treatment is initiated on the same day, with either vehicle or AHR agonist compound(s). On study day 7, DSS drinking water is replaced with normal drinking water for the remainder of the study. Body weight is measured daily during the entire study. On study day 10, animals are anesthetized with Isoflurane and bled to exsanguination followed by cervical dislocation. The entire colon is removed and measured for length, weight, and weight per length. Overall efficacy of test AR agonist compounds is based on body weight, colon length, and colon histopathology. Histopathology data is assessed for appropriate parameters, as determined by a pathologist and the parameters for these DSS studies can include inflammation, erosion, gland loss, edema, hyperplasia, neutrophil count, mucosal thickening, lymphoid aggregate count and lymphoid aggregate size. The different parameter scores can be added for a summed score for the study histopathology.

Series [2] concerns T-cell transfer IBD model. The format is in vivo, SCID mice. The protocol: On study day 0, donor Balb/C mice are terminated, and spleens obtained for CD4+CD45RB^high cell isolation (Using a SCID IBD Cell Separation Protocol). After cells have been sorted and obtained, each recipient SCID animal receives an IP injection of, at a minimum, 4×10^5 cells (200 μl/mouse injections). Also on study day 0, SCID mice are weighed and randomized into treatment groups based on body weight. On study day 14, AHR agonist compound treatments are initiated and dosed orally daily; the control group receiving anti-IL12 (0.5 mg/mouse) is dosed IP once a week. On study day 49, animals are anesthetized with Isoflurane and bled to exsanguination followed by cervical dislocation. The entire colon is removed, measured, and weighed. Overall efficacy of AHR agonist compounds are based on a ratio of colon weight to length, and colon histopathology and colon cytokines (Th17 panel).

The test system of series [3] is DSS model of Inflammatory Bowel Disease (IBD). On the set-up: species or system C57Bl/6 mice. To be noted: mouse.
For series [4], the system named is Cyp1a1 gene expression. On the set-up: species or system C57BL/6N mice. To be noted: mouse, in vivo. The protocol: C57BL/6N mice are weighed and randomized into treatment groups with group size of 3-5 mice. On study Day 1, treatment is initiated and necropsies follow on day 1 at 4 and 12 hours post-dose and on Day 2, 24 hours post-dose. On Day 1, mice are dosed orally with one dose of the AHR agonist compound(s) that are in a suspension and mixed well before dosing. At the designated time, animals are euthanized and plasma and tissue taken for compound levels (PK) and compound effect (PD) on gene expression. Liver samples and proximal colon are weighed and then frozen for subsequent RNA extraction and RT-PCR analysis. AHR activation is determined by measuring Cyp1a1 gene expression relative to a housekeeping gene, such as GAPDH or HPRT. Cyp1a1 expression levels in the liver are compared to Cyp1a1 levels in the colon to determine a colon:liver ratio to determine the level of GI preferred AHR activation.

Series [5] deals with human Crohn's and ulcerative colitis tissue cultures.
For series [6], the system named is human regulatory T cells (Tregs). In words: Treg assay (human). To be noted: compound present during induction of Tregs, in vitro; FIG. 15. The format is cell-based. The protocol:
On day 0, naïve T cells from cryopreserved human derived PBMCs were isolated. These cells were plated in 48 well plate at 500,000 cells/mL concentration with human CD3/CD28 activation tetramer (12.5 μL/1×10^6 cells) and differentiated into regulatory T cells (Tregs) with 1 ng/mL […] and 5 ng/mL human recombinant TL-2 in the presence of DMSO or different concentrations of AHR agonist compounds.
On day 5, the Tregs were counted and washed. CD25− Effector T cells (Teffs) were isolated from the same human donor and were labeled with Cell Trace Violet. The Tregs and Teffs were cocultured for 4 days in 96 well plate at 1:2 or 1:1 ratio with human CD3/CD28 tetramer (12.5 μL/1×10^6 cells).
At the end of a 4 day co-culture, the cells were washed and stained with LiveDead stain. They were run on flow cytometer and analyzed using FLOWJO software.

The test system of series [7] is naive CD62L+ human T-Cells. In words: Th17 assay. The format is cell-based. To be noted: FIG. 16. The protocol:
On Day 1, naive CD62L+ human T-Cells were plated in a 96 well plate (25,000 cells in 200 uL media). Cells were activated with human CD3/CD28 tetramer (12.5 μL/1×10^6 cells) and differentiated with human Th17 cytokines (50 ng/mL IL-6, 20 ng/mL IL-1 beta, 10 ng/mL IL-23, 1 ng/mL TGF-beta, 12 μg/mL anti-human IFN-γ antibody and 10 μg/mL anti-human TL-4 antibody) for 10 days. Media containing cytokine cocktail and CD3/CD28 was refreshed every 2-3 days. On Day 10, cell supernatant was collected and frozen for cytokine analysis. Cells were stimulated with 1× Cell Stimulation Cocktail (PMA and Ionomycin) for 5 hours. After 5 hours of stimulation, cells were stained for intracellular cytokines (human CD4, IL-17A, IL-22). Samples were run on BD LSR FORTESSA and analyzed in FLOWJO software.

Where [8] appears, read: T-cell transfer IBD model, FIG. 9.

Regarding `FC(F)(F)c1cccc(Nc2nc(-c3cccc(Cl)c3)cs2)c1` [Compound P-2], the “inflammation and erosion (histopathology)” value in series [1] (relative to vehicle control, FIG. 6, FIG. 19) was “minimal inflammation and mild erosion”. Moreover, in series [1] (FIG. 5), the colon length result is “increased colon length” and the content score result is “improved content score”. For the same molecule, in series [2] (T-cell transfer IBD model, colon cytokines, FIG. 11), the “cytokine activity: IFN-γ, IL-1β, and MIP-3α/CCL20” value is “significant reduction”. The “cytokine activity: GM-CSF and IL-6” value in series [2] (T-cell transfer IBD model, colon cytokines, FIG. 12) is listed as “significant reduction”. For the same molecule, in series [2] (T-cell transfer IBD model, colon cytokines, FIG. 13), the “cytokine activity: IL-17/IL-25 and TNF-α” value is listed as “reduction”. Also, in series [2] (setting [8]), the body weight entry was “increased body weight”, the colon weight entry was “decreased colon weight”, the “reduction in colon weight compared to vehicle” value came out at 54% and the “reduction in colon weight per length compared to vehicle” value is 54%. For the same molecule, the inflammation result in series [2] (T-cell transfer IBD model, FIG. 10) is recorded as “significant reduction”. For the same molecule, in series [2] (mouse, in vivo), the “in vivo AHR activation by expression of Cyp1a1 in the colon” value was “confirmed”. Besides, in series [3], the “in vivo AHR activation by expression of Cyp1a1 in the colon” value is on record as “confirmed”.

Regarding `Nc1cccc(-c2csc(Nc3cccc(C(F)(F)F)c3)n2)c1` [I-10], in series [4], the “Cyp1a1 induction in the colon” value was “comparable”. For the same molecule, in series [5], the “cytokine release: IFN-γ, IL-17A, IL-1β, and TNF-α” value was “decreases”. Moreover, in series [6], the “suppressive functions of human Tregs” value is reported as “increases suppressive functions”. In addition, in series [7] (Th17 polarizing conditions), the “IL-17A+ human T-cells” value is “decreases” and the “IL-22+ human T-cells” value is “increases”. Also, the “human Th17 cell differentiation” value in series [7] (in vitro) is “modulates”.
